Columns and labels:
[1] = system: one or more cytochrome P450 enzymes (CYP1A2, 2A6, 2B6, 2C8, 2C9, 2C19, 2D6, 2E1, 3A4); isoform not specified per value; experiment: in vitro; details: human, pH 7.4
CYP2B6 [2] = target: T1, CYP2B6 (Homo sapiens, UniProt P20813); experiment: Single concentration; assay type: in vitro ADME; details: human liver microsomes
T1 sequence (P20813 1-491): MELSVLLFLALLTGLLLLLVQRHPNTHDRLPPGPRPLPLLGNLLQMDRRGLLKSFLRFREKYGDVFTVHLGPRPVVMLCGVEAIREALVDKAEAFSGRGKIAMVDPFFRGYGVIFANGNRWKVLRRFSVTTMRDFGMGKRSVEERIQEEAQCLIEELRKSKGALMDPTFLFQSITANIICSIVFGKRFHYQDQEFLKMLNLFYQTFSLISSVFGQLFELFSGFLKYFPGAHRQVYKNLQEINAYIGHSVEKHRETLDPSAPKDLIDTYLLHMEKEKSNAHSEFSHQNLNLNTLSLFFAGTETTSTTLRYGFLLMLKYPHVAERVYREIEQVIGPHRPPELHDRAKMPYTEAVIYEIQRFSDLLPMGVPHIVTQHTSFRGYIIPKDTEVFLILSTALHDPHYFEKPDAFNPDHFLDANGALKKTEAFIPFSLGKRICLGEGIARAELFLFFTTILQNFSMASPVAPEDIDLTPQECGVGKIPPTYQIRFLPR

CYP2C9 = CYP2C9 (Homo sapiens, UniProt P11712); details: recombinant enzymes; ref Kent et al., (2002); cited from earlier work
CYP3A4 [3] = target: T2, CYP3A4 (Homo sapiens, UniProt P08684)
CYP2B6 [4] = target: T1, CYP2B6; details: recombinant enzymes; ref Kent et al., (2002); cited from earlier work
CYP3A4 [5] = target: T2, CYP3A4; details: recombinant enzymes; ref Kent et al., (2002); cited from earlier work
CYP2D6 = CYP2D6 (Homo sapiens, UniProt P10635); experiment: Single concentration; assay type: in vitro ADME; details: human liver microsomes
CYP2C = experiment: Single concentration; assay type: in vitro ADME; details: human liver microsomes
cytochrome P450 enzymes = experiment: Single concentration; details: 10 µM, 9 isoforms

T2 sequence (P08684 whole entry): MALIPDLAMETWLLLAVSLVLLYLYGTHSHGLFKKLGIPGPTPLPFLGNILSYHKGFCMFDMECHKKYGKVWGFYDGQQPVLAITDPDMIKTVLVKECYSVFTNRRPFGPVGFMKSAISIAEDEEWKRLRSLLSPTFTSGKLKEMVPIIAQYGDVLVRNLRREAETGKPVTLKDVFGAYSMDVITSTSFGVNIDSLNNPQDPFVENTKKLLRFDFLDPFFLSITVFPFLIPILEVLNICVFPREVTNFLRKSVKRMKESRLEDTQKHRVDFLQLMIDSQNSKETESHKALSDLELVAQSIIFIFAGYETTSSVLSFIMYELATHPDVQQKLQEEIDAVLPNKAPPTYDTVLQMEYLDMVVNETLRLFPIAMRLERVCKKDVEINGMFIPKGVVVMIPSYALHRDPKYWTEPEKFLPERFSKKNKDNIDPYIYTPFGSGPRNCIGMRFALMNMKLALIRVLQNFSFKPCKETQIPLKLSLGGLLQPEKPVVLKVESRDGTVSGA
Sequence of CYP2C9 (P11712 whole entry): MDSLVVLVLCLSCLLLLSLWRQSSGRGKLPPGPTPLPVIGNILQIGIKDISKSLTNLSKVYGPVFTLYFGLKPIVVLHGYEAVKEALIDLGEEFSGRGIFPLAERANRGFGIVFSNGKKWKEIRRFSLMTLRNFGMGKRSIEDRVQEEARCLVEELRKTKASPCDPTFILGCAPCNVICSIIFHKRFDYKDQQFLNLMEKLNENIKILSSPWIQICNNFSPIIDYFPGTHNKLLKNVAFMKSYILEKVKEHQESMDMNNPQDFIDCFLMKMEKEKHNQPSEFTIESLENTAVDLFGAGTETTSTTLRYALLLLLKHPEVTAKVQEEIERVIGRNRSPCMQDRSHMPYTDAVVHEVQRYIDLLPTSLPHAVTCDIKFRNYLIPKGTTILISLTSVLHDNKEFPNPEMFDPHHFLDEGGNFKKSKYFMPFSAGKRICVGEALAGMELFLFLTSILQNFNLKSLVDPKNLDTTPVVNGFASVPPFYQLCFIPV
Sequence of CYP2D6 (P10635 whole entry): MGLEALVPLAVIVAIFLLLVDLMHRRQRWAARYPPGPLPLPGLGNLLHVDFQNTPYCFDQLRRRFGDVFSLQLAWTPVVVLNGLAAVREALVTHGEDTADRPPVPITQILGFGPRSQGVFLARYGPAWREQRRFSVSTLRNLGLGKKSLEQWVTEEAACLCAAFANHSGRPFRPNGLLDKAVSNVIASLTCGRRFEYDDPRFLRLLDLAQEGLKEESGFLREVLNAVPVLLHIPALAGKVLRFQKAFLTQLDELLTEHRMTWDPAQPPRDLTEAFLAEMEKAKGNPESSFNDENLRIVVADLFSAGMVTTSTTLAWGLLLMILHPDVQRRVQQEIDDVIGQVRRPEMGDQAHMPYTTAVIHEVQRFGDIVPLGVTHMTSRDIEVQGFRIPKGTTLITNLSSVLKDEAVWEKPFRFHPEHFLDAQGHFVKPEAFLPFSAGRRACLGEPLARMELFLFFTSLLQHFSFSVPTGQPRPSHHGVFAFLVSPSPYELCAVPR

Molecule | inhibition at 10 min, 10 µM [1] [%] | inhibition of CYP2B6 at 10 µM, in words (CYP2B6 [2]) | mode of CYP3A4 inhibition, in words (CYP3A4 [3]) | inhibition of any cytochrome P450 enzyme, in words (cytochrome P450 enzymes) | further results
CC1(C)[C@@H](O)CC[C@]2(C)[C@H]3C(=O)C=C4[C@@H]5C[C@@](C)(C(=O)O)CC[C@]5(C)CC[C@@]4(C)[C@]3(C)CC[C@@H]12 [18β-glycyrrhetinic acid] | > 50 |  |  |  | 
CC1(C)C=Cc2c(ccc3c2OC[C@@H](c2ccc(O)cc2O)C3)O1 [Glabridin, glabridin] | > 50 | not inhibition | competitively inhibited |  | inhibition of CYP2C9, in words (CYP2C9): reversibly inhibited; inhibition of CYP2B6, in words (CYP2B6 [4]): irreversibly inhibited; inhibition of CYP3A4, in words (CYP3A4 [5]): irreversibly inhibited
O=C(/C=C/c1ccc(O[C@@H]2O[C@H](CO)[C@@H](O)[C@H](O)[C@H]2O)cc1)c1ccc(O)cc1O [Isoliquiritin, isoliquiritin] |  |  |  | did not inhibit | 
isoliquiritin apioside |  |  |  | did not inhibit | 
liquiritin apioside |  |  |  | did not inhibit | 

Further lines, with some results ahead:

inhibition at 10 min, 10 µM [1] [%] | inhibition of CYP2B6 at 10 µM, in words (CYP2B6 [2]) | mode of CYP3A4 inhibition, in words (CYP3A4 [3]) | Molecule | inhibition of any cytochrome P450 enzyme, in words (cytochrome P450 enzymes) | further results
> 50 | inhibited |  | COc1c(CC=C(C)C)c(O)cc2oc(=O)c(-c3ccc(O)cc3O)cc12 [Glycycoumarin, glycycoumarin] |  | inhibition of CYP2D6 at 10 µM, in words (CYP2D6): did not observe significant inhibition; inhibition of CYP2C at 10 µM, in words (CYP2C): inhibited
 |  | competitively inhibited | O=C(/C=C/c1ccc(O)cc1)c1ccc(O)cc1O [Isoliquiritigenin, isoliquiritigenin] |  | 
> 50 | inhibited | competitively inhibited | COc1c(CC=C(C)C)c(O)cc2c1C[C@H](c1ccc(O)c(CC=C(C)C)c1O)CO2 [Licoricidin, licoricidin] |  | 

— publication PMC5656517 (European journal of pharmaceutical sciences : official …, 2017)
